Activity calls are given as the source filed them. The calls are words filed in the database; no cut-off is given here.
Tests used:
Endothelial lipase [1] = molecular target: T1, Endothelial lipase (Homo sapiens, UniProt Q9Y5X9); test: Inhibition of EL in human HT1080 cells using D31-POPC-HDL as substrate incubated for 2 hrs in presence of human serum by LC/MS analysis; format: cell-based
T1 sequence (Q9Y5X9 whole entry): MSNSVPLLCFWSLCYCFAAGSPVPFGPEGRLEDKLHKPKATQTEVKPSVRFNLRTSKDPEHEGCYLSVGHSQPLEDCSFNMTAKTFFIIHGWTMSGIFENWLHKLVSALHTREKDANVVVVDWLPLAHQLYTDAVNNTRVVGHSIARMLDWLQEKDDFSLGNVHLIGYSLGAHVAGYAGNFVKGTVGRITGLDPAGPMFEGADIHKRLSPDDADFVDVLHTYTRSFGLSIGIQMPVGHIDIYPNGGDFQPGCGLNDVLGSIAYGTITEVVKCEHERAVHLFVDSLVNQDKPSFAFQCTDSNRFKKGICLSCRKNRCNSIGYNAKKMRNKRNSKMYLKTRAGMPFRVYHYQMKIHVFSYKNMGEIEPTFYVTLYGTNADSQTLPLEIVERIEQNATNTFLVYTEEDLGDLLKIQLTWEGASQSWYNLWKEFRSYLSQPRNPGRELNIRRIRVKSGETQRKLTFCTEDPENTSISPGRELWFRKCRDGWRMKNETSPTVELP

Endothelial lipase [2] = molecular target: T1, Endothelial lipase; test: Inhibition of EL in human HT1080 cells using A10070 as substrate preincubated for 20 min followed by DMPG vesicle doped substrate addition and measured at 20 secs interval for 10 mins by fluorescence assay; format: cell-based
[3] = molecular target: T2, Hepatic triacylglycerol lipase (Homo sapiens, UniProt P11150); test: Inhibition of human HL […] using A10070 as substrate preincubated for 20 min followed by DMPG vesicle doped substrate addition and measured at 20 secs interval for 10 mins by fluorescence assay; format: cell-based
T2 sequence (P11150 whole entry): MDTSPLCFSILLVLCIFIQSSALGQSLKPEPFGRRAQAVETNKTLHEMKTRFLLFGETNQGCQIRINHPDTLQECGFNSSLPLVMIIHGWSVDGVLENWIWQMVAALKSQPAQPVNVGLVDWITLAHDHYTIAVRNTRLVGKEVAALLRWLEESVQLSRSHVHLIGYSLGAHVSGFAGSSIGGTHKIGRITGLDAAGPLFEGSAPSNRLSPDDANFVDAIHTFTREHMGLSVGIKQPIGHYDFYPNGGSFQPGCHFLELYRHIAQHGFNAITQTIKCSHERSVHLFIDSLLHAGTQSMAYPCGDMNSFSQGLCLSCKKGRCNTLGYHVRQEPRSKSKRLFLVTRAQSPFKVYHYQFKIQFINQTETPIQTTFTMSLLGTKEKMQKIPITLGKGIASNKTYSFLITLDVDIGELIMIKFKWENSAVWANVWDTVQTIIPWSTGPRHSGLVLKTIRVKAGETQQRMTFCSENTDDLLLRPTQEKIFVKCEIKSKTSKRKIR

Endothelial lipase [4] = molecular target: T1, Endothelial lipase; test: Inhibition of EL in human HT1080 cells using D31-POPC-HDL as substrate incubated for 2 hrs in presence of mouse plasma by LC/MS analysis; format: cell-based
[5] = Metabolic stability in human liver microsomes assessed as compound remaining at 0.5 uM incubated for 10 mins; format: ADME, Microsome; details: read-out: Stability
[6] = AUC (0 to 24 hrs) in C57BL/6 mouse at 50 mg/kg, ip administered as nanosuspension measured after 24 hrs by LC-MS/MS analysis; format: ADME, organism-based; parameters: dose 50 mg/kg, time < 24 hr, route intraperitoneal; details: in vivo
[7] = Metabolic stability in mouse liver microsomes assessed as compound remaining at 0.5 uM incubated for 10 mins; format: ADME, Microsome; details: read-out: Stability
[8] = Plasma concentration in C57BL/6 mouse at 50 mg/kg, ip administered as nanosuspension measured after 24 hrs by LC-MS/MS analysis; format: ADME, organism-based
Endothelial lipase [9] = molecular target: T3, Endothelial lipase (Mus musculus, UniProt Q9WVG5); test: Inhibition of endothelial lipase in hepatic lipase knock-out mouse plasma; format: cell-free
T3 sequence (Q9WVG5 whole entry): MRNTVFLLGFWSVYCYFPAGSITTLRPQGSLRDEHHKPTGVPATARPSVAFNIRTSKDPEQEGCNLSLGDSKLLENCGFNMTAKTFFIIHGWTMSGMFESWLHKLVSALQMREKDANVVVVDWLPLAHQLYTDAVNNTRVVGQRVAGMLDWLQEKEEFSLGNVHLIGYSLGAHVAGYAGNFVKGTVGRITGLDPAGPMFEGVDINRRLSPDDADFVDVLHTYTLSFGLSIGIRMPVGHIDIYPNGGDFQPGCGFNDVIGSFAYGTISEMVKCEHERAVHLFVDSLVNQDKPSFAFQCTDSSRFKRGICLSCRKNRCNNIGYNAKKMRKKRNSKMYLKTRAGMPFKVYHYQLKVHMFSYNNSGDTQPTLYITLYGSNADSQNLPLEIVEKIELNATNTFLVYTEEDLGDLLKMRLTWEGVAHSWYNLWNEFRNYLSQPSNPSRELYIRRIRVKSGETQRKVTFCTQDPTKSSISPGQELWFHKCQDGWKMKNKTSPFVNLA

Mus musculus [10] = test: Antihyperlipidemic activity in C57BL/6 mouse assessed as increase in HDL-C level at 50 mg/kg, ip qd administered as nanosuspension for 2 days measured 6 hrs post-last dose by LC-MS/MS analysis relative to control; format: functional
[11] = Metabolic stability in rat liver microsomes assessed as compound remaining at 0.5 uM incubated for 10 mins; format: ADME, Microsome; details: read-out: Stability
[12] = Cmax in C57BL/6 mouse at 50 mg/kg, ip administered as nanosuspension measured after 24 hrs by LC-MS/MS analysis; format: ADME, organism-based; parameters: dose 50 mg/kg, route intraperitoneal; details: in vivo
Homo sapiens = species: Homo sapiens; test: Selectivity index, ratio of IC50 for human HL expressed in […] cells to IC50 for EL in human HT1080 cells; format: cell-based
[13] = Plasma concentration in C57BL/6 mouse at 50 mg/kg, sc measured after 24 hrs by LC-MS/MS analysis; format: ADME, organism-based
Mus musculus [14] = test: Induction of macrophage-mediated [3H]-cholesterol efflux in C57BL/6 mouse at 50 mg/kg, ip qd administered as nanosuspension for 3 days followed by [3H]-cholesterol addition on day 3 and measured after 2.5 hrs relative to control; format: functional
Mus musculus [15] = test: Antihyperlipidemic activity in hCETP/apoB-100 dual transgenic C57BL/6 mouse assessed as effect on LDL-C level at 50 mg/kg, ip bid administered as nanosuspension for 2 days measured 6 hrs post-last dose by FPLC analysis; format: functional, organism-based
[16] = Plasma concentration in C57BL/6 mouse at 50 mg/kg, po measured after 24 hrs by LC-MS/MS analysis; format: ADME, organism-based
Mus musculus [17] = test: Antihyperlipidemic activity in EL knock out C57BL/6 mouse assessed as increase in HDL-C level at 50 mg/kg, ip qd administered as nanosuspension for 2 days measured 6 hrs post-last dose by LC-MS/MS analysis relative to control; format: functional, organism-based
[18] = Plasma concentration in C57BL/6 mouse at 50 mg/kg, ip qd administered as nanosuspension for 2 days measured 6 hrs post-last dose by LC-MS/MS analysis; format: ADME, organism-based
Mus musculus [19] = test: Antihyperlipidemic activity in hCETP/apoB-100 dual transgenic C57BL/6 mouse assessed as increase in HDL-C level at 50 mg/kg, ip bid administered as nanosuspension for 2 days measured 6 hrs post-last dose by FPLC analysis relative to control; format: functional
[20] = Plasma concentration in EL knock out C57BL/6 mouse at 50 mg/kg, ip qd administered as nanosuspension for 2 days measured 6 hrs post-last dose by LC-MS/MS analysis; format: ADME, organism-based
Mus musculus [21] = test: Antihyperlipidemic activity in HL knock out C57BL/6 mouse assessed as increase in HDL-C level at 50 mg/kg, ip qd administered as nanosuspension for 2 days measured 6 hrs post-last dose by LC-MS/MS analysis relative to control; format: functional
[22] = Plasma concentration in HL knock out C57BL/6 mouse at 50 mg/kg, ip qd administered as nanosuspension for 2 days measured 6 hrs post-last dose by LC-MS/MS analysis; format: ADME, organism-based

Row | SMILES | IC50 (Endothelial lipase [1]) [µM] | IC50 (Endothelial lipase [2]) [µM] | IC50 [3] [µM] | IC50 (Endothelial lipase [4]) [µM] | remaining at 10 min, 0.5 µM [5] [%] | remaining at 10 min, 0.5 µM [7] [%] | concentration at 24 h [8] [nM] | IC50 (Endothelial lipase [9]) [µM] | Activity (Mus musculus [10]) | also measured
1 | NS(=O)(=O)NCc1nnc(C(=O)c2nc3cc(F)c(C(=O)NCC(F)(F)F)cc3s2)o1 | 0.05 | < 0.0005 | 0.004 |  | 87 | > 80 | 250 | 0.2 | 37.8 - 38% | AUC(0-t) at 24 h [6]: 58 µM·h; remaining at 10 min, 0.5 µM [11]: > 80%; Cmax [12]: 7100 nM; Ratio IC50 (Homo sapiens): 8
2 | NS(=O)(=O)NCc1nnc(C(=O)c2nc3cc(-c4ccc(C(=O)NCC(F)(F)F)cc4)c(F)cc3s2)o1 | 0.2 | < 0.0005 | 0.004 |  | 98 | 100 |  | 0.2 |  | 
3 | NS(=O)(=O)NCc1nnc(C(=O)c2nc3cc(-c4ccc5c(c4)CNC5=O)c(F)cc3s2)o1 |  |  |  |  |  |  | 460 |  | 36.9 - 37% | 

Second part, led by results:

Row | IC50 (Endothelial lipase [1]) [µM] | IC50 (Endothelial lipase [2]) [µM] | IC50 [3] [µM] | IC50 (Endothelial lipase [4]) [µM] | remaining at 10 min, 0.5 µM [5] [%] | remaining at 10 min, 0.5 µM [7] [%] | concentration at 24 h [8] [nM] | IC50 (Endothelial lipase [9]) [µM] | SMILES | Activity (Mus musculus [10]) | also measured
4 | 1 | 0.03 | > 0.01 | 1 |  |  |  |  | NC(=O)NCc1nnc(C(=O)c2nc3ccc(-c4ccccc4)cc3s2)o1 |  | 
5 | 7 | 0.02 | 0.003 | 1 |  |  |  |  | CN(Cc1nnc(C(=O)c2nc3ccc(-c4ccccc4)cc3s2)o1)S(N)(=O)=O |  | 
6 |  |  |  |  |  |  | 500 |  | NS(=O)(=O)NCc1nnc(C(=O)c2nc3ccc(-c4ccccc4)cc3s2)o1 | 56% | concentration at 24 h [13]: 190 nM; Activity (Mus musculus [14]): 53%; Activity (Mus musculus [15]): inactive; concentration at 24 h [16]: 250 nM; Activity (Mus musculus [17]): inactive; concentration at 6 h [18]: 520 nM; Activity (Mus musculus [19]): 36%; concentration at 6 h [20]: 8500 nM; Activity (Mus musculus [21]): 31.7 - 32%; concentration at 6 h [22]: 11000 nM

— ChEMBL document CHEMBL4321883 (J Med Chem, 2020)
